Source: the supplement of paper PMC11451515

Test system: NOMO1
Assay: cell viability relative to DMSO control; higher = less cytotoxic
Settings: 48 h
Method in brief: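 Viability was expressed as a per-plate percentage of DMSO wells, with cell-free wells as background. Leukemia cells (NOMO1 or SEM at 500 cells/well, P12-Ichikawa at 1000 cells/well) were adapted for at least four passages in each medium and seeded in 1536-well plates (5 μl). Library compounds in DMSO were pin-dosed over an 11-point threefold series from 47 μM to 0.79 nM, and CellTiter-Glo One luminescence was read after 48 h at 37°C.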

[1] = HPLM + 10% dialyzed FBS, 0.000781 µM
[2] = HPLM + 10% dialyzed FBS, 0.00234 µM
[3] = HPLM + 10% dialyzed FBS, 0.00702 µM
[4] = HPLM + 10% dialyzed FBS, 0.0211 µM
[5] = HPLM + 10% dialyzed FBS, 0.0632 µM
[6] = HPLM + 10% dialyzed FBS, 0.19 µM
[7] = HPLM + 10% dialyzed FBS, 0.569 µM
[8] = HPLM + 10% dialyzed FBS, 1.71 µM
[9] = HPLM + 10% dialyzed FBS, 5.12 µM
[10] = HPLM + 10% dialyzed FBS, 15.4 µM
[11] = HPLM + 10% dialyzed FBS, 46.1 µM
[12] = RPMI 5 mM glucose + 10% FBS, 0.000781 µM
[13] = RPMI 5 mM glucose + 10% FBS, 0.00234 µM
[14] = RPMI 5 mM glucose + 10% FBS, 0.00702 µM
[15] = RPMI 5 mM glucose + 10% FBS, 0.0211 µM
[16] = RPMI 5 mM glucose + 10% FBS, 0.0632 µM
[17] = RPMI 5 mM glucose + 10% FBS, 0.19 µM
[18] = RPMI 5 mM glucose + 10% FBS, 0.569 µM
[19] = RPMI 5 mM glucose + 10% FBS, 1.71 µM
[20] = RPMI 5 mM glucose + 10% FBS, 5.12 µM
[21] = RPMI 5 mM glucose + 10% FBS, 15.4 µM
[22] = RPMI 5 mM glucose + 10% FBS, 46.1 µM
[23] = RPMI 5 mM glucose + 10% dialyzed FBS, 0.000781 µM
[24] = RPMI 5 mM glucose + 10% dialyzed FBS, 0.00234 µM
[25] = RPMI 5 mM glucose + 10% dialyzed FBS, 0.00702 µM
[26] = RPMI 5 mM glucose + 10% dialyzed FBS, 0.0211 µM
[27] = RPMI 5 mM glucose + 10% dialyzed FBS, 0.0632 µM
[28] = RPMI 5 mM glucose + 10% dialyzed FBS, 0.19 µM
[29] = RPMI 5 mM glucose + 10% dialyzed FBS, 0.569 µM
[30] = RPMI 5 mM glucose + 10% dialyzed FBS, 1.71 µM
[31] = RPMI 5 mM glucose + 10% dialyzed FBS, 5.12 µM
[32] = RPMI 5 mM glucose + 10% dialyzed FBS, 15.4 µM
[33] = RPMI 5 mM glucose + 10% dialyzed FBS, 46.1 µM

| Compound | cell viability [1] [%] | cell viability [2] [%] | cell viability [3] [%] | cell viability [4] [%] | cell viability [5] [%] | cell viability [6] [%] | cell viability [7] [%] | cell viability [8] [%] | cell viability [9] [%] | cell viability [10] [%] | cell viability [11] [%] | cell viability [12] [%] | cell viability [13] [%] | cell viability [14] [%] | cell viability [15] [%] | cell viability [16] [%] | cell viability [17] [%] | cell viability [18] [%] | cell viability [19] [%] | cell viability [20] [%] | cell viability [21] [%] | cell viability [22] [%] | cell viability [23] [%] | cell viability [24] [%] | cell viability [25] [%] | cell viability [26] [%] | cell viability [27] [%] | cell viability [28] [%] | cell viability [29] [%] | cell viability [30] [%] | cell viability [31] [%] | cell viability [32] [%] | cell viability [33] [%] |
| --- | --- | --- | --- | --- | --- | --- | --- | --- | --- | --- | --- | --- | --- | --- | --- | --- | --- | --- | --- | --- | --- | --- | --- | --- | --- | --- | --- | --- | --- | --- | --- | --- | --- |
| C#CCN(C)[C@H](C)Cc1ccccc1 | 88.2 | 89.6 | 88.5 | 87.2 | 76.7 | 79.7 | 85.6 | 83 | 92 | 79.8 | 65.1 | 82.2 | 82.8 | 82 | 85.4 | 77 | 83.9 | 79.4 | 76 | 82.9 | 78.9 | 77.5 | 77.6 | 86.1 | 84.2 | 95.6 | 85 | 94 | 83.5 | 80 | 92.2 | 83.6 | 82.7 |
| CN1C(=O)\C(=C/C(=C1/NC2=C(F)C=C(I)C=C2)C(=O)NOCCO)C | 89.8 | 89.6 | 77.9 | 64.2 | 46.3 | 45.8 | 40.2 | 41.6 | 32.9 | 39.8 | 36.1 | 86 | 93.8 | 75.3 | 72 | 50.2 | 52.2 | 49.4 | 46.7 | 43.4 | 41.4 | 46.5 | 75 | 81.7 | 78.5 | 62.9 | 45.9 | 40.8 | 40 | 40.4 | 37.6 | 43.1 | 43.3 |
| Clc1ccc(C2(c3ccc(-c4cn[nH]c4)cc3)CCNCC2)cc1 | 80.5 | 101 | 111 | 100 | 100 | 98.2 | 96.6 | 91.9 | 69.9 | 63.3 | 62.7 | 80.2 | 81.3 | 86.4 | 83.8 | 90.8 | 89.2 | 98.9 | 77.9 | 77.6 | 65.6 | 55.3 | 86.7 | 99.2 | 83.4 | 93.5 | 99 | 103 | 81.4 | 72.2 | 70.3 | 59.9 | 53.7 |
| COc1cc2c(N3CCN(C(=O)Nc4ccc(OC(C)C)cc4)CC3)ncnc2cc1OCCCN1CCCCC1 | 68.3 | 89.2 | 85.9 | 88.7 | 83.3 | 87.7 | 112 | 94.2 | 95.2 | 47.4 | 41.2 | 73.1 | 71.7 | 84.7 | 74.5 | 79.4 | 83.8 | 86.3 | 77.5 | 75.4 | 40 | 67.3 | 79.3 | 80.9 | 75.4 | 85.8 | 80.9 | 74 | 89.7 | 93.7 | 85.5 | 43.5 | 55.3 |
| CO/N=C(/C(=O)N[C@@H]1C(=O)N2C(C(=O)O)=C(Cn3ccc(=N)n3CCO)CS[C@H]12)c1csc(N)n1 | 104 | 115 | 131 | 136 | 130 | 116 | 120 | 130 | 137 | 133 | 166 |  |  |  |  |  |  |  |  |  |  |  | 112 | 117 | 129 | 133 | 138 | 140 | 130 | 123 | 153 | 138 | 134 |
| Cc1ccc(-n2nc(C(C)(C)C)cc2NC(=O)Nc2ccc(OCCN3CCOCC3)c3ccccc23)cc1 | 104 | 103 | 119 | 123 | 114 | 104 | 111 | 115 | 120 | 114 | 96 | 102 | 101 | 113 | 103 | 104 | 97.1 | 107 | 106 | 95.8 | 95.4 | 98.1 | 88.2 | 105 | 111 | 106 | 106 | 108 | 118 | 120 | 99.9 | 107 | 96.2 |
| O=C1c2c(O)cccc2[C@H]([C@@H]2O[C@H](CO)[C@@H](O)[C@H](O)[C@H]2O)c2cc(CO)cc(O)c21 | 87 | 101 | 97.9 | 77 | 110 | 122 | 102 | 102 | 111 | 93.4 | 97.5 | 87.8 | 91.8 | 81 | 80.8 | 94.5 | 79.8 | 80.3 | 83.1 | 83.1 | 85.8 | 84.6 | 84.7 | 80.2 | 106 | 88.3 | 87.6 | 96.6 | 96.3 | 86.6 | 89 | 83.1 | 94.6 |
| COc1cc2nccc(Oc3ccc(NC(=O)Nc4cc(C)on4)c(Cl)c3)c2cc1OC | 113 | 117 | 117 | 138 | 108 | 116 | 121 | 130 | 115 | 129 | 87.8 |  |  |  |  |  |  |  |  |  |  |  | 124 | 124 | 119 | 114 | 112 | 115 | 111 | 136 | 112 | 120 | 70.9 |
| COc1cc2nccc(Oc3ccc(NC(=O)Nc4ccc(F)cc4F)c(F)c3)c2cc1OC | 101 | 95.8 | 94.1 | 84.6 | 89.9 | 86 | 90.3 | 83.6 | 75 | 78.7 | 72.2 | 83 | 95.8 | 79.6 | 90.5 | 96.2 | 88.1 | 87.5 | 90.9 | 83 | 80.1 | 75.7 | 96.6 | 96.1 | 103 | 91.9 | 94.5 | 90.1 | 81.7 | 102 | 80.7 | 83.2 | 54.6 |
| O=C(NC1CCNCC1)c1n[nH]cc1NC(=O)c1c(Cl)cccc1Cl | 114 | 110 | 123 | 128 | 126 | 127 | 112 | 23.5 | 7.29 | 5.85 | 3.89 | 112 | 110 | 110 | 104 | 112 | 115 | 111 | 33.9 | 9.78 | 7.73 | 3.45 | 116 | 116 | 115 | 113 | 117 | 107 | 98.1 | 35.8 | 7.61 | 7.43 | 3.85 |
| COc1cc2c(Nc3ccc(NC(=O)c4ccccc4)cc3)ncnc2cc1OCCCN1CCOCC1 | 122 | 124 | 128 | 126 | 137 | 133 | 144 | 122 | 103 | 114 | 115 |  |  |  |  |  |  |  |  |  |  |  |  |  |  |  |  |  |  |  |  |  |  |
| NC(=O)N1c2ccccc2CC(=O)c2ccccc21 | 115 | 124 | 121 | 126 | 123 | 136 | 128 | 137 | 126 | 143 | 163 |  |  |  |  |  |  |  |  |  |  |  |  |  |  |  |  |  |  |  |  |  |  |
| C=C(C)[C@@H]1CC[C@]2(C)CC[C@]3(C)[C@H](CC[C@@H]4[C@@]5(C)CC[C@H](O)C(C)(C)[C@@H]5CC[C@]43C)[C@@H]12 | 90.7 | 95.3 | 104 | 123 | 115 | 127 | 109 | 119 | 134 | 117 | 131 | 106 | 111 | 114 | 126 | 121 | 127 | 121 | 115 | 124 | 130 | 115 | 113 | 106 | 111 | 106 | 100 | 113 | 113 | 123 | 123 | 124 | 115 |
| CC(C)(C)OC(=O)CN(Cc1ccc(Cl)cc1)Cc1ccc([N+](=O)[O-])s1 | 109 | 95.6 | 107 | 96.8 | 101 | 99.6 | 91.1 | 87.5 | 92.7 | 75.3 | 40.7 | 88.9 | 98.6 | 95.4 | 87 | 93.5 | 105 | 96.3 | 92.9 | 89.7 | 81.3 | 66.5 | 107 | 97.7 | 95.7 | 96.6 | 107 | 94 | 103 | 102 | 95.5 | 87 | 80.1 |
| Cc1nc(Nc2ncc(C(=O)Nc3c(C)cccc3Cl)s2)cc(N2CCN(CCO)CC2)n1 | 90.9 | 104 | 102 | 99.9 | 107 | 107 | 113 | 95.2 | 83.9 | 85.6 | 71.9 | 104 | 102 | 106 | 101 | 105 | 105 | 117 | 110 | 100 | 89.3 | 80.3 | 101 | 94.5 | 102 | 92.1 | 105 | 94.3 | 106 | 96.2 | 81 | 75.9 | 75.9 |
| C1Cc2[nH]nc(-c3nn[nH]n3)c2C1 | 128 | 120 | 119 | 139 | 149 | 145 | 131 | 143 | 140 | 145 | 142 |  |  |  |  |  |  |  |  |  |  |  | 122 | 124 | 131 | 139 | 135 | 144 | 137 | 147 | 131 | 145 | 149 |
| FC(F)(F)c1ccc(Nc2nc3cc(Oc4ccnc(-c5ncc(C(F)(F)F)[nH]5)c4)ccc3[nH]2)cc1 |  |  |  |  |  |  |  |  |  |  |  |  |  |  |  |  |  |  |  |  |  |  | 109 | 124 | 136 | 133 | 136 | 132 | 131 | 145 | 130 | 148 | 89.3 |
